Results: patent US9919998B2, “Antibacterial agents: Nα-aroyl-N-aryl-phenylalaninamides” (priority 2014, dated 2018)
Converted amounts (≈) assume the structure as drawn.

How the values were obtained:
Assay type in all cases: cell-based
[1] = tested on: Mycobacterium tuberculosis H37Rv; experiment: Microplate Alamar Blue assay (MABA) MIC, M. tuberculosis; details: read-out: MIC Mycobacterium tuberculosis H37Rv
From the text: (§1) Minimal inhibitory concentrations (MICs) in Mycobacterium tuberculosis H37Rv and Mycobacterium avium ATCC 25291 were quantified using microplate Alamar Blue assays as described (MABA; [Collins, L. & Franzblau, S. (1997) Microplate Alamar Blue assay versus BACTEC 460 system for high-throughput screening of compounds against Mycobacterium tuberculosis and Mycobacterium avium. Antimicrob. Agents Chemother. 41, 1004-1009]).

[2] = tested on: Mycobacterium avium ATCC 25291; experiment: Microplate Alamar Blue assay (MABA) MIC, M. avium; details: ATCC25291, M. avium ATCC 25291
From the text: as §1

[3] = tested on: Mycobacterium smegmatis ATCC 19420; experiment: Broth microdilution MIC, M. smegmatis; details: Mycolicibacterium smegmatis, ATCC19420, M. smegmatis ATCC 19420; read-out: MIC Mycobacterium smegmatis ATCC 19420
From the text: MICs in Mycobacterium smegmatis ATCC 19420 and Mycobacterium smegmatis ATCC 19420 derivatives were quantified using broth microdilution assays as described [Clinical and Laboratory Standards Institute (CLSI/NCCLS) (2009) Methods for Dilution Antimicrobial Susceptibility Tests for Bacteria That Grow Aerobically; Approved Standard, Eighth Edition. CLIS Document M07-A8 (CLIS, Wayne Pa.)].

[4] = tested on: Vero E6 ATCC CRL1586 cells; experiment: Mammalian-cell cytotoxicity, minimal cytotoxic concentration (CellTiter96)
Experimental: Minimal cytotoxic concentrations (MCCs) against mammalian cells in culture were determined using Vero E6 ATCC CRL1586 cells and the CellTiter96 assay kit (Promega, Inc.). […]

| Compound | MIC [1] | MIC [2] | MIC [3] | MCC mammalian cells Vero E6 ATCC CRL1586 [4] |
| --- | --- | --- | --- | --- |
| Cc1ccccc1NC(=O)C(Cc1ccc(O)cc1)NC(=O)c1ccccc1Cl (centres unmarked) [IX-60, 2-chloro-N-(3-(4-hydroxyphenyl)-1-oxo-1-(o-tolylamino)propan-2-yl)benzamide] | 50 µg/mL (≈ 122 µM) | > 50 µg/mL | 3.12 µg/mL (≈ 7.64 µM) | >100 µg/mL |
| COc1ccccc1NC(=O)C(Cc1ccccc1)NC(=O)c1ccccc1F (centres unmarked) [IX-56, 2-fluoro-N-(1-((2-methoxyphenyl)amino)-1-oxo-3-phenylpropan-2-yl)benzamide] | 3.12 µg/mL (≈ 7.96 µM) | 6.25 µg/mL (≈ 15.9 µM) | 0.39 µg/mL (≈ 0.994 µM) | 97 µg/mL |
| Cc1ccccc1NC(=O)C(Cc1ccc(O)cc1)NC(=O)c1ccccc1F (centres unmarked) [IX-54, 2-fluoro-N-(3-(4-hydroxyphenyl)-1-oxo-1-(o-tolylamino)propan-2-yl)benzamide] | 25 µg/mL (≈ 63.7 µM) | 50 µg/mL (≈ 127 µM) | 1.56 µg/mL (≈ 3.98 µM) | >100 µg/mL |
| O=C(NC(Cc1ccccc1)C(=O)Nc1cccc2nc[nH]c12)c1ccccc1 (centres unmarked) [IX-230, N-(1-((1H-benzo[d]imidazol-7-yl)amino)-1-oxo-3-phenylpropan-2-yl)benzamide] | 50 µg/mL (≈ 130 µM) | 25 µg/mL (≈ 65 µM) | 0.39 µg/mL (≈ 1.01 µM) | 84 µg/mL |
| O=C(NC(Cc1ccccc1)C(=O)Nc1cccc2ccsc12)c1ccccc1 (centres unmarked) [II-47] | 1.56 µg/mL (≈ 3.9 µM) | 3.12 µg/mL (≈ 7.8 µM) | 1.56 µg/mL (≈ 3.9 µM) | >100 µg/mL |
| Cc1ccc(F)cc1NC(=O)C(Cc1ccccc1)NC(=O)c1ccccc1F (centres unmarked) [IX-81, 2-fluoro-N-(1-((5-fluoro-2-methylphenyl)amino)-1-oxo-3-phenylpropan-2-yl)benzamide] | 1.56 µg/mL (≈ 3.96 µM) | 3.12 µg/mL (≈ 7.92 µM) | 0.195 µg/mL (≈ 0.494 µM) | 38 µg/mL |
| COc1cccc(NC(=O)C(Cc2ccccc2)NC(=O)c2ccccc2F)c1C (centres unmarked) [IX-108, 2-fluoro-N-(1-((3-methoxy-2-methylphenyl)amino)-1-oxo-3-phenylpropan-2-yl)benzamide] | 12.5 µg/mL (≈ 30.8 µM) | 25 µg/mL (≈ 61.5 µM) | 0.78 µg/mL (≈ 1.92 µM) | 80 µg/mL |
| CCc1ccccc1C(=O)NC(Cc1ccccc1)C(=O)Nc1ccccc1C (centres unmarked) [I-123] | > 50 µg/mL | > 50 µg/mL | 1.56 µg/mL (≈ 4.04 µM) | >100 µg/mL |
| Cc1c(F)cccc1NC(=O)C(Cc1ccccc1)NC(=O)c1ccccc1 (centres unmarked) [I-73] | > 50 µg/mL | > 50 µg/mL | 0.78 µg/mL (≈ 2.07 µM) | 19 µg/mL |
| Cc1ccccc1C(=O)NC(Cc1ccccc1)C(=O)Nc1cccc2ncccc12 (centres unmarked) [IX-70, 2-methyl-N-(1-oxo-3-phenyl-1-(quinolin-5-ylamino)propan-2-yl)benzamide] | 12.5 µg/mL (≈ 30.5 µM) | 25 µg/mL (≈ 61.1 µM) | 0.39 µg/mL (≈ 0.952 µM) | 63 µg/mL |
| O=C(NC(Cc1ccccc1)C(=O)Nc1cccc2cc[nH]c12)c1cccs1 (centres unmarked) [IX-41, N-(1-((1H-indol-7-yl)amino)-1-oxo-3-phenylpropan-2-yl)thiophene-2-carboxamide] | 12.5 µg/mL (≈ 32.1 µM) | 12.5 µg/mL (≈ 32.1 µM) | 0.39 µg/mL (≈ 1 µM) | 48 µg/mL |
| Cc1ccccc1C(=O)NC(Cc1ccccc1)C(=O)Nc1cccc2cnccc12 (centres unmarked) [IX-69, N-(1-(isoquinolin-5-ylamino)-1-oxo-3-phenylpropan-2-yl)-2-methylbenzamide] | 3.12 µg/mL (≈ 7.63 µM) | 3.12 µg/mL (≈ 7.63 µM) | 0.39 µg/mL (≈ 0.952 µM) | >100 µg/mL |
| Cc1ccccc1C(=O)NC(Cc1ccc(O)cc1)C(=O)Nc1ccccc1N1CCOCC1 (centres unmarked) [IX-156, N-(3-(4-hydroxyphenyl)-1-((2-morpholinophenyl)amino)-1-oxopropan-2-yl)-2-methylbenzamide] | 1.56 µg/mL (≈ 3.39 µM) | 3.12 µg/mL (≈ 6.8 µM) | 0.095 µg/mL (≈ 0.207 µM) | 81 µg/mL |
| Cn1cnc2cccc(NC(=O)C(Cc3ccccc3)NC(=O)c3ccccc3)c21 (centres unmarked) [IX-232, N-(1-((1-methyl-1H-benzo[d]imidazol-7-yl)amino)-1-oxo-3-phenyl-propan-2-yl)benzamide] | 25 µg/mL (≈ 62.7 µM) | 25 µg/mL (≈ 62.7 µM) | 1.56 µg/mL (≈ 3.92 µM) | 96 µg/mL |
| O=C(NC(Cc1ccc(O)cc1)C(=O)Nc1cc(F)ccc1N1CCNCC1)c1ccccc1 (centres unmarked) [IX-246, N-(1-((5-fluoro-2-(piperazin-1-yl)phenyl)amino)-3-(4-hydroxy-phenyl)-1-oxopropan-2-yl)benzamide] | 3.12 µg/mL (≈ 6.76 µM) | 0.78 µg/mL (≈ 1.69 µM) | 0.195 µg/mL (≈ 0.422 µM) | 34 µg/mL |
| COc1ccc(Cl)cc1NC(=O)C(Cc1ccccc1)NC(=O)c1ccccc1C (centres unmarked) [IX-279, N-(1-((5-chloro-2-methoxyphenyl)amino)-1-oxo-3-phenylpropan-2-yl)-2-methylbenzamide] | 0.78 µg/mL (≈ 1.84 µM) | 0.78 µg/mL (≈ 1.84 µM) | 1.56 µg/mL (≈ 3.69 µM) | 87 µg/mL |
| Cn1ncc2c(NC(=O)C(Cc3ccccc3)NC(=O)c3ccccc3)cccc21 (centres unmarked) [IX-225, N-(1-((1-methyl-1H-indazol-4-yl)amino)-1-oxo-3-phenylpropan-2-yl)benzamide] | 1.56 µg/mL (≈ 3.92 µM) | 1.56 µg/mL (≈ 3.92 µM) | 0.195 µg/mL (≈ 0.489 µM) | 45 µg/mL |
| O=C(NC(Cc1ccc(O)cc1)C(=O)Nc1cccc2c1OCCO2)c1cccs1 (centres unmarked) [IX-34, N-(1-((2,3-dihydrobenzo[b][1,4]dioxin-5-yl)amino)-3-(4-hydroxyphenyl)-1-oxopropan-2-yl)thiophene-2-carboxamide] | 6.25 µg/mL (≈ 14.7 µM) | 3.12 µg/mL (≈ 7.36 µM) | 0.39 µg/mL (≈ 0.919 µM) | 85 µg/mL |
| O=C(NC(Cc1ccccc1)C(=O)Nc1cccc2ccncc12)c1ccccc1 (centres unmarked) [IX-15, N-(1-(isoquinolin-8-ylamino)-1-oxo-3-phenylpropan-2-yl)benzamide] | 6.25 µg/mL (≈ 15.8 µM) | 25 µg/mL (≈ 63.2 µM) | 0.78 µg/mL (≈ 1.97 µM) | 85 µg/mL |
| O=C(NC(Cc1ccccc1)C(=O)Nc1cccc2c1OC(F)(F)O2)c1cccs1 (centres unmarked) [IX-124, N-(1-((2,2-difluorobenzo[d][1,3]dioxol-4-yl)amino)-1-oxo-3-phenyl-propan-2-yl)thiophene-2-carboxamide] | > 50 µg/mL | > 50 µg/mL | 0.78 µg/mL (≈ 1.81 µM) | 38 µg/mL |
| Cc1ccccc1C(=O)NC(Cc1ccccc1)C(=O)Nc1cccc2nc[nH]c12 (centres unmarked) [IX-281, N-(1-((1H-benzo[d]imidazol-7-yl)amino)-1-oxo-3-phenylpropan-2-yl)-2-methylbenzamide] | 12.5 µg/mL (≈ 31.4 µM) | 12.5 µg/mL (≈ 31.4 µM) | 0.78 µg/mL (≈ 1.96 µM) | 92 µg/mL |
| Cc1ccc(F)cc1NC(=O)C(Cc1ccccc1)NC(=O)c1ccccc1C (centres unmarked) [IX-83, N-(1-((5-fluoro-2-methylphenyl)amino)-1-oxo-3-phenylpropan-2-yl)-2-methylbenzamide] | 0.78 µg/mL (≈ 2 µM) | 1.56 µg/mL (≈ 4 µM) | 0.195 µg/mL (≈ 0.499 µM) | 1.4 µg/mL |
| O=C(NC(Cc1ccccc1)C(=O)Nc1cccc2nc[nH]c12)c1ccccc1F (centres unmarked) [IX-280, N-(1-((1H-benzo[d]imidazol-7-yl)amino)-1-oxo-3-phenylpropan-2-yl)-2-fluorobenzamide] | 12.5 µg/mL (≈ 31.1 µM) | 25 µg/mL (≈ 62.1 µM) | 1.56 µg/mL (≈ 3.88 µM) | 78 µg/mL |
| Cn1ccc2cccc(NC(=O)C(Cc3ccccc3)NC(=O)c3ccccc3)c21 (centres unmarked) [IX-231, N-(1-((1-methyl-1H-indol-7-yl)amino)-1-oxo-3-phenylpropan-2-yl)benzamide] | 25 µg/mL (≈ 62.9 µM) | > 50 µg/mL | 1.56 µg/mL (≈ 3.92 µM) | >100 µg/mL |
| Cc1ccccc1C(=O)NC(Cc1ccccc1)C(=O)Nc1cccc2[nH]ncc12 (centres unmarked) [IX-191, N-(1-((1H-indazol-4-yl)amino)-1-oxo-3-phenylpropan-2-yl)-2-methyl-benzamide] | 12.5 µg/mL (≈ 31.4 µM) | 12.5 µg/mL (≈ 31.4 µM) | 0.39 µg/mL (≈ 0.979 µM) | >100 µg/mL |
| O=C(NC(Cc1ccccc1)C(=O)Nc1cccc2c1OCO2)c1ccccc1 (centres unmarked) [IX-72, N-(1-(benzo[d][1,3]dioxol-4-ylamino)-1-oxo-3-phenylpropan-2-yl)benzamide] | 6.25 µg/mL (≈ 16.1 µM) | 3.12 µg/mL (≈ 8.05 µM) | 0.095 µg/mL (≈ 0.245 µM) | 33 µg/mL |
| O=C(NC(Cc1ccccc1)C(=O)Nc1cc(F)cc2ncccc12)c1ccccc1 (centres unmarked) [IX-75, N-(1-((7-fluoroquinolin-5-yl)amino)-1-oxo-3-phenylpropan-2-yl)benzamide] | 0.78 µg/mL (≈ 1.89 µM) | 0.78 µg/mL (≈ 1.89 µM) | 0.39 µg/mL (≈ 0.943 µM) | >100 µg/mL |
| O=C(NC(Cc1ccccc1)C(=O)Nc1cccc2ncccc12)c1ccccc1Cl (centres unmarked) [IX-64, 2-chloro-N-(1-oxo-3-phenyl-1-(quinolin-5-ylamino)propan-2-yl)benzamide] | 12.5 µg/mL (≈ 29.1 µM) | 50 µg/mL (≈ 116 µM) | 0.78 µg/mL (≈ 1.81 µM) | 78 µg/mL |
| O=C(NC(Cc1ccccc1)C(=O)Nc1cccc2c1CCCC2)c1cccs1 (centres unmarked) [IX-86, N-(1-oxo-3-phenyl-1-((5,6,7,8-tetrahydronaphthalen-1-yl)amino)propan-2-yl)thiophene-2-carboxamide] | > 50 µg/mL | > 50 µg/mL | 0.78 µg/mL (≈ 1.93 µM) | 50 µg/mL |
